Series [1] can be described thus: Pharmacokinetics study of formulations, subcutaneous dosing. It is filed as in vivo. The settings on record: Formulation 2; SC 0.2 mg/kg; male cynomolgus monkeys.
Method: Formulation 1 included the compound in a vehicle of 0.1% bovine serum albumin in phosphate buffered saline solution. […] Samples were obtained at 1, 4, 8, 12, 24, 48, 72, 96, 120, 168, 192, 240 and 336 hours after the single dose was administered.
In series [2] the target is T1, GIP receptor (Homo sapiens, UniProt P48546).
T1 sequence (P48546 22-466): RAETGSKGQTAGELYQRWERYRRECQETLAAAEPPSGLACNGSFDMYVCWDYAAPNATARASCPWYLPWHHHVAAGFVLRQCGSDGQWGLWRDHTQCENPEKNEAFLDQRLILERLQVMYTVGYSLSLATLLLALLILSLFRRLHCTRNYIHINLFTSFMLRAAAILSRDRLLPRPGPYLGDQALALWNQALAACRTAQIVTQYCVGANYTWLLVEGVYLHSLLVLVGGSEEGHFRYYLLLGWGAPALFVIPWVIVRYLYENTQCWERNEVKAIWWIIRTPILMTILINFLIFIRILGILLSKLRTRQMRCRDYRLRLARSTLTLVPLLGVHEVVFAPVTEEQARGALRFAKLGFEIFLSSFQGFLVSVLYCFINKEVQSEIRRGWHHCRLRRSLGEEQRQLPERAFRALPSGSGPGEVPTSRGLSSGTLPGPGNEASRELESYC
Briefly: Binding assay in the presence or absence of 2% human serum albumin, GIP receptor. The note with it: IC50 with 2% HSA to IC50 with 0% HSA.

Series [3] has as its target GLP-1 receptor (Homo sapiens, UniProt P43220). The settings on record: IC50 with 2% HSA to IC50 with 0% HSA.

Chain of GLP-1 receptor (P43220 24-463, species assumed): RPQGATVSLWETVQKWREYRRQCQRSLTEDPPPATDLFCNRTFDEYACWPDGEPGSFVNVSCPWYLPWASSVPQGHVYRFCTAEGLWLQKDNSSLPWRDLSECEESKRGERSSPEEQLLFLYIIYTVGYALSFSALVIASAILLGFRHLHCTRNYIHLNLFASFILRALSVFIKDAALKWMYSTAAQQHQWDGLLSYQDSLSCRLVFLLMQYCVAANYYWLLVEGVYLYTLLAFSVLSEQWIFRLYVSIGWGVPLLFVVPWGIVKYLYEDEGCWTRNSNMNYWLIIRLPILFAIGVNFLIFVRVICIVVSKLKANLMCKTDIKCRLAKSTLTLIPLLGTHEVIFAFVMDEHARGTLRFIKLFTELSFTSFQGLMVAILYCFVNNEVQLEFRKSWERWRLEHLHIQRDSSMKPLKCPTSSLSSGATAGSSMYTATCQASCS

In the case of `CC[C@H](C)[C@H](NC(=O)[C@H](CC(C)C)NC(=O)[C@H](Cc1c[nH]c2ccccc12)NC(=O)[C@H](CCC(N)=O)NC(=O)[C@@H](NC(=O)[C@H](Cc1ccccc1)NC(=O)[C@H](C)NC(=O)[C@H](CCCCNC(=O)COCCOCCNC(=O)COCCOCCNC(=O)CC[C@H](NC(=O)CCCCCCCCCCCCCCCCCCP(=O)(O)O)C(=O)O)NC(=O)[C@H](CCC(N)=O)NC(=O)[C@H](C)NC(=O)[C@@H](NC(=O)[C@H](CCCCN)NC(=O)[C@H](CC(=O)O)NC(=O)[C@H](CC(C)C)NC(=O)C(C)(C)NC(=O)[C@@H](NC(=O)[C@H](CO)NC(=O)[C@H](Cc1ccc(O)cc1)NC(=O)[C@H](CC(=O)O)NC(=O)[C@H](CO)NC(=O)[C@@H](NC(=O)[C@H](Cc1ccccc1)NC(=O)[C@@H](NC(=O)CNC(=O)[C@H](CCC(=O)O)NC(=O)C(C)(C)NC(=O)[C@@H](N)Cc1ccc(O)cc1)[C@@H](C)O)[C@@H](C)O)[C@@H](C)CC)[C@@H](C)CC)C(C)C)C(=O)N[C@@H](C)C(=O)NCC(=O)NCC(=O)N1CCC[C@H]1C(=O)N[C@@H](CO)C(=O)N[C@@H](CO)C(=O)NCC(=O)N[C@@H](C)C(=O)N1CCC[C@H]1C(=O)N1CCC[C@H]1C(=O)N1CCC[C@H]1C(=O)N[C@@H](CO)C(N)=O` [Compound 4], the “mean half life compared to tirzepatide” value in series [1] is “twice as long”. In series [2], the “GIP receptor Ratio of HSA:No HSA” value was determined as 1.25. Also, the “GLP-1 receptor Ratio of HSA:No HSA” value in series [3] amounted to 6.42.

The values are drawn from patent publication US20250171499A1, “PHARMACEUTICAL FORMULATIONS AND METHODS FOR THE TREATMENT OF METABOLIC AND LIVER DISORDERS” (Viking Therapeutics, Inc., priority 2022, published 2025).
